Blank lines part the entries; values can stand above or below the compound they belong to.
Molecular target: T1, H^+/K^+-ATPase (Sus scrofa, UniProt P19156)
T1 construct: The obtained microsome fraction was used as the H^+/K^+-ATPase standard product; from tissue; host or cells: pig stomach (corpus ventriculi) mucous membrane microsome fraction
Assay: Proton, potassium-adenosine triphosphatase (H+/K+-ATPase) inhibitory activity test
Format: biochemical
Conditions: pig stomach mucous membrane microsome fraction; pH 6.5, 37° C.; malachite green colorimetry at 610 nm; read-out: IC50 (50% inhibitory concentration of proton and potassium-adenosine triphosphatase)
Protocol: Proton, Potassium-Adenosine Triphosphatase (H^+/K^+-ATPase) Inhibitory Activity Test
According to the method of Wallmark et al. [Biochem. Biophys. Acta., 728, 31 (1983)], a stomach mucous membrane microsome fraction was prepared from the stomach of a pig. First, the corpus ventriculi was isolated, washed with tap water, immersed in 3M brine, and the surface of the mucous membrane was wiped with a paper towel. The stomach mucous membrane was separated, chopped, and homogenized using polytron (Kinematica) in 0.25 M saccharose solution (pH 6.8) containing 1 mM EDTA and 10 mM tris hydrochloric acid. The obtained homogenate was centrifuged at 20,000×g for 30 min, and the supernatant was centrifuged at 100,000×g for 90 min. After suspending the precipitated part in a 0.25 M saccharose solution, layered on a 0.25 M saccharose solution containing 7.5% Ficoll, and centrifuged at 100,000×g for 5 hr. The fraction of the interface between the both layers was collected and washed by centrifugation with a 0.25 M saccharose solution.
The obtained microsome fraction was used as the H^+/K^+-ATPase standard product.
A test compound (5 μL) dissolved in a 10% aqueous dimethyl sulfoxide solution was added to 40 μL of a 50 mM Hepes-tris buffer (5 mM magnesium chloride, 10 mM potassium chloride, 10 μM valinomycin, pH=6.5) containing 2.5 μg/mL (based on the protein concentration) of an enzyme standard product, and the mixture was incubated at 37° C. for 30 min. The enzyme reaction was started by the addition of 5 μL of a 2 mM adenosine triphosphate tris salt solution (50 mM Hepes-tris buffer (5 mM magnesium chloride, pH 6.5)). The enzyme reaction was carried out at 37° C. for 20 min, and quenched by adding 15 μL of malachite green solution (a mixture of 0.12% malachite green sulfuric acid (5N) solution, 7.5% ammonium molybdate and 11% Tween 20 at a ratio of 100:25:2). The mixture was stood at room temperature for 15 min, and the resulting reaction product of inorganic phosphorus and malachite green was colorimetrically determined at a wavelength of 610 nm. The amount of inorganic phosphoric acid in a reaction solution free of potassium chloride was measured in the same manner. The H^+/K^+-ATPase activity was measured by subtracting the obtained amount from the amount of inorganic phosphoric acid in the presence of potassium chloride. The inhibitory rate (%) was determined from the control activity value and the activity value at each concentration of the test compound, and 50% inhibitory concentration (IC50) of proton and potassium-adenosine triphosphatase was determined.

T1 sequence (P19156 2-1034 limits assumed): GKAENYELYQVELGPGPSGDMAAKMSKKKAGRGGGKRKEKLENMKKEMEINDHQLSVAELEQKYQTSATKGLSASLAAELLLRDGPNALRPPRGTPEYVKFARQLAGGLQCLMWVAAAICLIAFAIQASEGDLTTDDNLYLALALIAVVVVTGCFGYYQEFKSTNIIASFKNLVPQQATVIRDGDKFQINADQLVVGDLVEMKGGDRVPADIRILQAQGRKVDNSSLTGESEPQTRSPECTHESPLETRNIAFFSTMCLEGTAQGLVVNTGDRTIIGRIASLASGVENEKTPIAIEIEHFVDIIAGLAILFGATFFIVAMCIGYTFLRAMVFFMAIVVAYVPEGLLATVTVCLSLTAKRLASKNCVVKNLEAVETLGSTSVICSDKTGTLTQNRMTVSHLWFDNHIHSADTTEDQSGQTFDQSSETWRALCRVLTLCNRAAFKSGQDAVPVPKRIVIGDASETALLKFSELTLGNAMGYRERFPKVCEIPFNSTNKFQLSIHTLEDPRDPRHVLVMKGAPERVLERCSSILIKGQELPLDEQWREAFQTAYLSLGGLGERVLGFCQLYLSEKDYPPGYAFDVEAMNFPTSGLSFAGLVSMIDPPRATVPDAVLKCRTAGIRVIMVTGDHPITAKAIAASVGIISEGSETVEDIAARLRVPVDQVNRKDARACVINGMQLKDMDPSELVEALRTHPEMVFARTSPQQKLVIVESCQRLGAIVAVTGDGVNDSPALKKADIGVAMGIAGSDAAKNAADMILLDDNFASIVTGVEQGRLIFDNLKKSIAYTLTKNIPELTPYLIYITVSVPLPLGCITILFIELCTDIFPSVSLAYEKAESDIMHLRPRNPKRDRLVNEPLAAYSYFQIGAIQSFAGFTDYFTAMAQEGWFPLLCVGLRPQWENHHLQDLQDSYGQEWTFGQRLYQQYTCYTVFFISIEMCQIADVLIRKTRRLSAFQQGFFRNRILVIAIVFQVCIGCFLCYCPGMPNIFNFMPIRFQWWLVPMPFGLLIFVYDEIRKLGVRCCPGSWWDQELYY
T1 sequence (P18434 whole entry partner): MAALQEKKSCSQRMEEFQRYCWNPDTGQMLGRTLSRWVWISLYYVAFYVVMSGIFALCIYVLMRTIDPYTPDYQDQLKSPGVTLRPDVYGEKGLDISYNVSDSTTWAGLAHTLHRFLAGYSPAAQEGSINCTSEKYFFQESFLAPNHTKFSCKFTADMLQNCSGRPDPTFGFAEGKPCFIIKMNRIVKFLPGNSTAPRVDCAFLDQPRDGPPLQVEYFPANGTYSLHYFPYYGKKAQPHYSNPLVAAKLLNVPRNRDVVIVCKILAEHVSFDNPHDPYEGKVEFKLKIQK

Structure (SMILES): Cc1[nH]c2c(NC3CCc4ccccc43)nccc2c1C (centres unmarked) [Example 16, N-(2,3-dihydro-1H-inden-1-yl)-2,3-dimethyl-1H-pyrrolo[2,3-c]pyridine-7-amine]
IC50: 9.8 nM

Structure (SMILES): Cc1[nH]c2c(NC(=O)c3ccccc3)nccc2c1C [Example 74, N-[7-(2,3-dimethyl-1H-pyrrolo[2,3-c]pyridyl)]benzamide]
IC50: 1800 nM

Structure (SMILES): Cc1cccc(C)c1CNc1nccc2c(C)c(C)[nH]c12 [Example 14, N-(2,6-dimethylbenzyl)-2,3-dimethyl-1H-pyrrolo[2,3-c]pyridine-7-amine]
IC50: 14 nM

Structure (SMILES): Cc1cc(F)ccc1CNc1nccc2c(CO)c(C)n(CC(C)C)c12 [Example 65, {7-[(4-fluoro-2-methylbenzyl)amino]-1-isobutyl-2-methyl-1H-pyrrolo[2,3-c]pyridin-3-yl}methanol]
IC50: 3.2 nM

Results, then the compound that gave them:

IC50: 27 nM
Structure (SMILES): Cc1[nH]c2c(NCc3ccccc3)nccc2c1C [Example 12, N-benzyl-2,3-dimethyl-1H-pyrrolo[2,3-c]pyridine-7-amine]

IC50: 1200 nM
Structure (SMILES): Cc1cc2ccnc(NCc3ccccc3)c2n1CC1CC1 [Example 5, N-benzyl-1-(cyclopropylmethyl)-2-methyl-1H-pyrrolo[2,3-c]pyridine-7-amine]

IC50: 24 nM
Structure (SMILES): CCCn1c(C)c(C)c2ccnc(NCc3ccc(F)cc3C)c21 [Example 26, N-(4-fluoro-2-methylbenzyl)-2,3-dimethyl-1-propyl-1H-pyrrolo[2,3-c]pyridine-7-amine]

IC50: 980 nM
Structure (SMILES): CCCn1c(C)cc2ccnc(NCc3ccccc3)c21 [Example 2, N-benzyl-2-methyl-1-propyl-1H-pyrrolo[2,3-c]pyridine-7-amine]

Reference: patent publication US20180148446A1, “PYRROLO [2,3-c] PYRIDINE COMPOUND, PROCESS FOR PRODUCING THE SAME, AND USE” (Takeda Pharmaceutical Company Limited, priority 2004, published 2018)
